According to patent US20230067593A1, “NANOFORMULATIONS OF METHYL {4,6-DIAMINO-2-[5-FLUORO-1-(2-FLUOROBENZYL)-1H-PYRAZOLO[3,4-B]PYRIDIN-3 -YL]PYRIMIDIN-5-YL} CARBAMATE” (ADVERIO PHARMA GMBH, priority 2020, published 2023):

Test: Screening experiments of nanosuspensions with different stabilizers (wet bead milling, planetary mill)
Format: physicochemical
Conditions: wet bead milling process according to Examples 1-3
Description: Most of the screening experiments of Example 1 were done in a planetary ball mill (PBM) of type Pulverisette 5. For sample preparation, the micronized compound of the formula (I) was predispersed in aqueous polymer surfactant solution and transferred into the grinding chamber (PET 23ml) which was filled with milling beads. The water contained in the solution was used as dispersing agent. As grinding media (0.4 - 0.6 mm) the Silibeads® zirconium oxide (yttrium stabilized) with a bulk density of 3.9 kg/l from Sigmund Lindner (Germany) were used. The milling beads fill level was 60% of the grinding chamber volume. Care was taken not to leave any air inclusions in the grinding chamber, as this would have a negative effect on the grinding process. The grinding time was 90 minutes at 400 rotations per minute. Four grinding chambers could be fed into the PBM per grinding operation. Thus, after separation of the grinding media, about 40 - 45 g suspension per grinding process could be produced.
The compound of formula (I) in crystalline form of modification I was produced according to example 13, method E of WO 2013/076168. Before nanomilling, the compound of formula (I) in crystalline form of modification I was micronized. For the screening experiments many different formulations were tested. For these experiments the duration of milling was 60 min. […]

SMILES: COC(=O)Nc1c(N)nc(-c2nn(Cc3ccccc3F)c3ncc(F)cc23)nc1N [Vericiguat, methyl {4,6-diamino-2-[5-fluoro-1-(2-fluorobenzyl)-1H-pyrazolo[3,4-b]pyridin-3-yl]pyrimidin-5-yl}carbamate]
- d50 after milling: < 200 nm
